PubChem BioAssay AID1918947 (Molecular Pharmacology Branch, DTP, NCI, 2023)
Several values for one entry are separate records, joined by “and”; a condition that tells them apart may be missing. Identical values can stand only once. Each block holds one compound with its values, some of them ahead of it.

System: A498 complex spheroid viability
Experiment: Anticancer human tumor A498 cell line growth inhibition;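 further: spheroids exposed to agents for seven days before readout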;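 on viability, T/C: 100% = DMSO vehicle-treated spheroids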
Details: for viability, T/C: stronger effect = lower value
Excerpt: Multicellular complex tumor spheroid response to LSD1 Inhibitor Iadademstat in combination with a variety of drugs and investigational agents in selected tumor cell lines
The current study was undertaken to assess response to LSD1 inhibitors in combination with standard-of-care drugs and investigational agents in solid tumor complex spheroid models as well as in the K-562 leukemia. Complex spheroids include a stromal component modeled by human endothelial cells (HUVEC) and fibroblasts modeled by human mesenchymal stem cells (MSCs). The concentration ranges selected for each drug and investigational agent were based upon clinically achievable concentrations if the clinical Cmax of the agent was known.
Compounds. The drugs and investigational agents used in this study are listed on Table 1. All of the agents used, including staurosporine (NSC755774) and gemcitabine (NSC613327), were obtained from the Developmental Therapeutics Program, NCI. FDA-approved anticancer drugs are available from the NCI at http://dtp.nci.nih.gov/branches/dscb/oncology_drugset_explanation.html. Drugs and investigational agents were >95% pure by proton nuclear magnetic resonance (NMR) and liquid chromatography/mass spectrometry (LC/MS). Stock solutions were prepared at 400x in DMSO, stored at -70 degrees C, and diluted in fresh medium prior to their use. The final concentration of DMSO in cell culture wells never exceeded 0.25% (v/v). The FDA-approved anticancer drug set is available from the Developmental Therapeutics Program at https://dtp.cancer.gov/organization/dscb/obtaining/available_plates.htm. All drugs and investigational agents were tested over a range starting from a high concentration at or near the clinical Cmax and decreasing in half-log increments. If the clinical Cmax for an agent had not been determined, the highest concentration tested was 10 microM.
Cell Lines. The patient-derived cancer cell (PDC) lines: 292921-168-R-J2-PDC, K24384-001-R-PDC, and 521955-158-R2-J5-PDC pancreatic carcinomas, 556581-035-R-J1 ovarian carcinoma, 324938-238-R-J1-PDC, 855422-203-R-J1-PDC and 883617-216-R-J1-PDC urothelial bladder carcinomas, 743489-274-T-PDC renal cell carcinoma, 138582-R-J1 Merkel cell tumor, K60290-347-R-J1 and K57222-313-R-J1-PDC glioblastomas, 653999-131-R-J2-PDC, LG0703-F948-PDC, and 349418-098-R-PDC non-small cell lung carcinomas, 885512-296-R-J2-PDC, 171881-019-R-J1-PDC breast carcinomas and 186277-243-T-J2-PDC and 233499-124-R-J2-PDC colon carcinomas were obtained from the NCI Patient-Derived Models Repository (PDMR, https://pdmr.cancer.gov). The established cell lines NCI/ADR-RES (RRID:CVCL_14520 and OVCAR-5 (RRID:CVCL_1628) ovarian carcinomas, 786-O (RRID:CVCL_1051) and A498 (RRID:CVCL_A498) renal cell carcinoma, NCI-H211 (ATCC, cat. CRL-5824; RRID:CVCL_1529), NCI-H196 (ATCC, cat. CRL-5823, RRID:CVCL_1509), SW 1271 (ATCC, cat. CRL-2177, RRID:CVCL_1716) and NCI-H1876 (ATCC, cat. CRL-5902, RRID:CVCL_1503) small cell lung carcinomas, MDA-MB-231 (RRID:CVCL_0062) and MDA-MB-468 (RRID:CVCL_0419)breast carcinomas (10-12). Pooled donor human umbilical vein endothelial cells (HUVEC, Lonza, cat. CC-2519) and human mesenchymal stem cells (hMSC, Lonza, cat. PT-2501) were purchased from Lonza (Walkersville, MD).
Cell Culture. All cells were maintained in an incubator at 37 degrees C and 5% CO2 with 95% humidity. The PDC lines were cultured according to standard operating procedures established by the NCI PDMR (https://pdmr.cancer.gov). Briefly all PDCs were thawed and cultured in Matrigel-coated flasks prepared with a working solution of 1X Ham's F-12 nutrient mix, without supplementation (Invitrogen, Waltham, MA, cat. 11765054), 100 U/mL penicillin-streptomycin (Invitrogen, cat. 15140122), and 2.5% Matrigel (Corning Inc., Corning, NY, cat. 354248) for the first three passages. […]

[1] = curve of first compound, second compound 0.1 µM
[2] = curve of first compound, second compound 0.316 µM
[3] = curve of first compound, second compound 1 µM
[4] = curve of first compound, second compound 3.16 µM
[5] = curve of first compound, second compound 10 µM
[6] = second compound 0.1 µM, first compound 0.0316 µM
[7] = second compound 0.1 µM, first compound 0.1 µM
[8] = second compound 0.1 µM, first compound 0.316 µM
[9] = second compound 0.1 µM, first compound 1 µM
[10] = second compound 0.316 µM, first compound 0.0316 µM
[11] = second compound 0.316 µM, first compound 0.1 µM
[12] = second compound 0.316 µM, first compound 0.316 µM
[13] = second compound 0.316 µM, first compound 1 µM
[14] = second compound 1 µM, first compound 0.0316 µM
[15] = second compound 1 µM, first compound 0.1 µM
[16] = second compound 1 µM, first compound 0.316 µM
[17] = second compound 1 µM, first compound 1 µM
[18] = second compound 3.16 µM, first compound 0.0316 µM
[19] = second compound 3.16 µM, first compound 0.1 µM
[20] = second compound 3.16 µM, first compound 0.316 µM
[21] = second compound 3.16 µM, first compound 1 µM
[22] = second compound 10 µM, first compound 0.0316 µM
[23] = second compound 10 µM, first compound 0.1 µM
[24] = second compound 10 µM, first compound 0.316 µM
[25] = second compound 10 µM, first compound 1 µM
[26] = second compound 0.1 µM, first compound 0.00316 µM
[27] = second compound 0.1 µM, first compound 0.01 µM
[28] = second compound 0.316 µM, first compound 0.00316 µM
[29] = second compound 0.316 µM, first compound 0.01 µM
[30] = second compound 1 µM, first compound 0.00316 µM
[31] = second compound 1 µM, first compound 0.01 µM
[32] = second compound 3.16 µM, first compound 0.00316 µM
[33] = second compound 3.16 µM, first compound 0.01 µM
[34] = second compound 10 µM, first compound 0.00316 µM
[35] = second compound 10 µM, first compound 0.01 µM

Structure (SMILES): CC1(C)CCC(CN2CCN(c3ccc(C(=O)NS(=O)(=O)c4ccc(NCC5CCOCC5)c([N+](=O)[O-])c4)c(Oc4cnc5[nH]ccc5c4)c3)CC2)=C(c2ccc(Cl)cc2)C1 + NC1CC1c1ccc(-c2cccc(O)c2)cc1
- IC50 [1]: 4510 nM
- IC50 [2]: 4160 nM
- IC50 [3]: 4080 nM
- IC50 [4]: 3700 nM
- IC50 [5]: 3840 nM
- viability, T/C [6]: 109%
- viability, T/C [7]: 106%
- viability, T/C [8]: 102%
- viability, T/C [9]: 93.1%
- viability, T/C (second compound 0.1 µM, first compound 3.16 µM): 69.6%
- viability, T/C (second compound 0.1 µM, first compound 10 µM): 7.58%
- viability, T/C [10]: 108%
- viability, T/C [11]: 112%
- viability, T/C [12]: 96.6%
- viability, T/C [13]: 88.2%
- viability, T/C (second compound 0.316 µM, first compound 3.16 µM): 66.7%
- viability, T/C (second compound 0.316 µM, first compound 10 µM): 5.66%
- viability, T/C [14]: 103%
- viability, T/C [15]: 99.6%
- viability, T/C [16]: 98.9%
- viability, T/C [17]: 84.3%
- viability, T/C (second compound 1 µM, first compound 3.16 µM): 64.1%
- viability, T/C (second compound 1 µM, first compound 10 µM): 6.2%
- viability, T/C [18]: 100%
- viability, T/C [19]: 91.4%
- viability, T/C [20]: 98.9%
- viability, T/C [21]: 86.1%
- viability, T/C (second compound 3.16 µM, first compound 3.16 µM): 57.2%
- viability, T/C (second compound 3.16 µM, first compound 10 µM): 5.72%
- viability, T/C [22]: 91.9%
- viability, T/C [23]: 91.6%
- viability, T/C [24]: 86.6%
- viability, T/C [25]: 77.8%
- viability, T/C (second compound 10 µM, first compound 3.16 µM): 59.9%
- viability, T/C (second compound 10 µM, first compound 10 µM): 7.06%

Structure (SMILES): CC(C)CC(NC(=O)CNC(=O)c1cc(Cl)ccc1Cl)B1OC(=O)CC(CC(=O)O)(C(=O)O)O1 (stereo unspecified) + NC1CC1c1ccc(-c2cccc(O)c2)cc1
- IC50 [1]: 4.26 nM
- IC50 [2]: 4.8 nM
- IC50 [3]: 4.44 nM
- IC50 [4]: 4.29 nM
- IC50 [5]: 3.46 nM
- viability, T/C (second compound 0.1 µM, first compound 0.000316 µM): 93.7%
- viability, T/C (second compound 0.1 µM, first compound 0.001 µM): 96.5%
- viability, T/C [26]: 60%
- viability, T/C [27]: 18.1%
- viability, T/C [6]: 5.77%
- viability, T/C [7]: 2.14%
- viability, T/C (second compound 0.316 µM, first compound 0.000316 µM): 106%
- viability, T/C (second compound 0.316 µM, first compound 0.001 µM): 114%
- viability, T/C [28]: 68.1%
- viability, T/C [29]: 17.3%
- viability, T/C [10]: 5.27%
- viability, T/C [11]: 1.97%
- viability, T/C (second compound 1 µM, first compound 0.000316 µM): 96.6%
- viability, T/C (second compound 1 µM, first compound 0.001 µM): 102%
- viability, T/C [30]: 62.9%
- viability, T/C [31]: 16.8%
- viability, T/C [14]: 3.81%
- viability, T/C [15]: 1.83%
- viability, T/C (second compound 3.16 µM, first compound 0.000316 µM): 91.8%
- viability, T/C (second compound 3.16 µM, first compound 0.001 µM): 94.4%
- viability, T/C [32]: 61%
- viability, T/C [33]: 16.9%
- viability, T/C [18]: 3.71%
- viability, T/C [19]: 1.96%
- viability, T/C (second compound 10 µM, first compound 0.000316 µM): 98.4%
- viability, T/C (second compound 10 µM, first compound 0.001 µM): 92.1%
- viability, T/C [34]: 51.7%
- viability, T/C [35]: 15.6%
- viability, T/C [22]: 2.82%
- viability, T/C [23]: 1.07%

Structure (SMILES): COc1cc(Nc2ncc3c(n2)-c2ccc(Cl)cc2C(c2c(F)cccc2OC)=NC3)ccc1C(=O)O + NC1CC1c1ccc(-c2cccc(O)c2)cc1
- IC50 [1]: 185 nM
- IC50 [2]: 282 nM
- IC50 [3]: 80.6 nM
- IC50 [4]: 34.6 nM
- IC50 [5]: 65.4 nM
- viability, T/C [26]: 76.7%
- viability, T/C [27]: 65.5%
- viability, T/C [6]: 58.5%
- viability, T/C [7]: 54%
- viability, T/C [8]: 49.4%
- viability, T/C [9]: 41%
- viability, T/C [28]: 85.2%
- viability, T/C [29]: 72.3%
- viability, T/C [10]: 66.9%
- viability, T/C [11]: 56%
- viability, T/C [12]: 52.1%
- viability, T/C [13]: 39.9%
- viability, T/C [30]: 78.7%
- viability, T/C [31]: 60.7%
- viability, T/C [14]: 58%
- viability, T/C [15]: 48.2%
- viability, T/C [16]: 44.8%
- viability, T/C [17]: 34.6%
- viability, T/C [32]: 71.1%
- viability, T/C [33]: 53.8%
- viability, T/C [18]: 52.6%
- viability, T/C [19]: 46.4%
- viability, T/C [20]: 42.2%
- viability, T/C [21]: 36.9%
- viability, T/C [34]: 76.6%
- viability, T/C [35]: 59.3%
- viability, T/C [22]: 54.1%
- viability, T/C [23]: 50.8%
- viability, T/C [24]: 40.1%
- viability, T/C [25]: 31.6%

Second part, led by results:

- IC50 (curve of compound): 1.22 nM and 0.674 nM
Structure (SMILES): CC(C)CC(NC(=O)C(Cc1ccccc1)NC(=O)c1cnccn1)B(O)O (stereo unspecified)
- viability, T/C (compound 0.000316 µM): 103%
- viability, T/C (compound 0.001 µM): 59.9% and 22.5%
- viability, T/C (compound 0.00316 µM): 3.38% and 2.52%
- viability, T/C (compound 0.01 µM): 0.64% and 0.86%
- viability, T/C (compound 0.0316 µM): 0.57% and 0.5%
- viability, T/C (compound 0.1 µM): 0.31% and 0.36%

- IC50 (curve of compound): 365 nM and 282 nM
Structure (SMILES): O=C(C=Cc1cccc(S(=O)(=O)Nc2ccccc2)c1)NO
- viability, T/C (compound 0.00949 µM): 94% and 91%
- viability, T/C (compound 0.03 µM): 82.5% and 80.6%
- viability, T/C (compound 0.0949 µM): 70.8% and 65.3%
- viability, T/C (compound 0.3 µM): 53.1% and 46.8%
- viability, T/C (compound 0.949 µM): 33.8% and 34.2%
- viability, T/C (compound 3 µM): 12.4% and 8.72%

- IC50 (curve of compound): 7.74 nM and 6.34 nM
Structure (SMILES): O=C(C=Cn1cnc(-c2cc(C(F)(F)F)cc(C(F)(F)F)c2)n1)NNc1cnccn1
- viability, T/C (compound 0.00316 µM): 71.3% and 66.5%
- viability, T/C (compound 0.01 µM): 42.9% and 36.6%
- viability, T/C (compound 0.0316 µM): 32.5% and 31.3%
- viability, T/C (compound 0.1 µM): 29.1% and 26.8%
- viability, T/C (compound 0.316 µM): 25.6% and 26.2%
- viability, T/C (compound 1 µM): 22.2% and 17.3%
